Experimental data: publication PMC9317316, “Synthesis and Evaluation of Some New 4H-Pyran Derivatives as Antioxidant, Antibacterial and Anti-HCT-116 Cells of CRC, with Molecular Docking, Antiproliferative, Apoptotic and ADME Investigations” (Pharmaceuticals, 2022)

What was measured:
[1] = test system: CDK2 gene in HCT-116 cells; assay: qRT-PCR expression profile of the CDK2 gene in HCT-116 cells; type: cell-based, human; settings: 24 h, relative to untreated cells (given as decreased x-fold)
Description: Second, the expression profiles of the CDK2 gene in HCT-116 cells treated with compounds 4d and 4k were determined. The results were compared with the positive control (cells treated with the well-known cytotoxic drug 5-fluorouracil) and the negative control (untreated cells).
Primers specific for the cyclin-dependent kinase-2 (CDK2) and caspase-3 genes were designed using primer blast (https://www.ncbi.nlm.nih.gov/tools/primer-blast/, accessed on 31 October 2021) or primer3 (https://primer3.ut.ee/, accessed on 31 October 2021) software. The selected genes covered the two main groups of the cyclin-dependent kinase-2 (CDK2) gene and the caspase-3 gene. Primers were used in RT-qPCR analysis to amplify fragments of 100–200 bp in length (Table 7).
Total RNA was extracted from each cell culture flask using the RNeasy extraction kit (RNeasy micro kit, cat. no. 74004). Up to 1 × 10^6 cells, depending on the cell line, were disrupted in buffer RLT and homogenized and disrupted. Ethanol was then added to the lysate, creating conditions that promote the selective binding of RNA to the RNeasy membrane. […] The amount of extracted RNA was quantified by estimating the absorbance at 260 nm. The purity of the RNA was checked by measuring the ratio of the absorbance at 260 and 280 nm, where a ratio ranging from 1.8 to 2.0 was taken to be pure. […]
(§1) Quantitative real-time PCR was carried out with the Thermal Cycler Rotorgene Real-Time System II (Rotorgene, South Korea) with the SYBR kit. […]
The relative expression levels through the average cycle threshold (CT) were successfully detected. Average CT values were calculated from the triplicate experiment conducted for each gene; the CT value was detected by subtracting the average CT value of genes from the CT value of actin and GAPDH genes. The relative expression levels of the target genes were calculated using the ΔΔ Ct method and the reference genes GAPDH for the cancer cell line. Finally, a fold change equation […] was used to estimate relative expression levels, while the standard deviation was calculated from the replicated experimental data.

[2] = test system: caspase-3 gene in HCT-116 cells; assay: qRT-PCR expression profile of the caspase-3 gene in HCT-116 cells; type: cell-based, human; parameters: dose or concentration left out as unconfirmed; settings: 24 h, as compared to the negative control
From the text: Normally, apoptosis, or programmed cell death, is considered as a safeguard mechanism for managing stress and maintaining tissue homeostasis. It proceeds through a series of well-ordered biochemical cascades of events, which are regulated by a network of proteins. However, due to genetic and epigenetic mutations, deregulation of these proteins occurs, which results in evasion of apoptosis. This oncogenic transformation is a hallmark of human cancer, and it contributes to other tumorigenic events, including uncontrolled growth, accumulation of further genetic mutations, tumor angiogenesis and metastasis and chemotherapeutic resistance. Therefore, reinitiating selective cancer cell death is a fundamental goal in anticancer drug development. Research in cancer biology has provided fundamental insights into the apoptotic pathways and their deregulation in colon cancer. Moreover, it has identified the molecular targets for reinitiating selective tumor cell death, including antiapoptotic Bcl-2 family proteins, apoptosis inhibitors and activators of the TRAIL death receptor signaling pathway, as well as other apoptotic markers, such as caspases. Among the caspases, which play critical roles in apoptosis, are the initiators, including caspases-8 or 9, and the effectors, including caspase-3 and caspase-7. […] Thus, the real-time quantitative PCR analyses of caspase-3-gene levels following treatment with compounds 4d and 4K at a concentration […] for 24 h, were performed to investigate their potential as proapoptotic agents. […]
Total RNA was extracted from each cell culture flask using the RNeasy extraction kit (RNeasy micro kit, cat. no. 74004). […] The amount of extracted RNA was quantified by estimating the absorbance at 260 nm. The purity of the RNA was checked by measuring the ratio of the absorbance at 260 and 280 nm, where a ratio ranging from 1.8 to 2.0 was taken to be pure. […]
as §1

O=c1[nH]cc(F)c(=O)[nH]1 [5-FU, 5-fluorouracil, reference compound]
CDK2 transcript level, fold [1]: 0.29 fold
caspase-3 gene transcription level, fold increase [2]: 7.31 fold
